This assay addresses BRD4(BD1) (Homo sapiens (Human), UniProt O60885). In words: In vitro enzyme inhibition assay (BRD4 AlphaScreen). It counts as binding. Here is the method:
His-tagged BRD4 was cloned, expressed and purified to homogeneity. […] BRD4 binding and inhibition was assessed by monitoring the interaction of biotinylated H4-tetraacetyl peptide (AnaSpec, H4K5/8/12/16(Ac), biotin-labeled) with the target using the AlphaScreen technology (Life Technologies). […] After 20 min incubation at room temp, Alpha streptavidin donor beads and Nickel Chelate acceptor beads were added to a final concentration of 5 μg/mL.
The ability of the compounds disclosed herein to inhibit BRD4 activity was quantified and the respective IC50 value was determined.
On the technique in general: Alpha assays give light when donor and acceptor beads are brought close together.

The mark [1] stands for this setting: in vitro enzyme inhibition assay.

In general, IC50 refers to the midpoint of a concentration-inhibition curve. Low values mean inhibition by little substance, high ones a need for much substance.

Each structure is given as a SMILES string. Where a name gives a salt, the structure may show the parent alone.

On to `CCCCc1cnc(NS(=O)(=O)CC)nc1-c1cc(OC)c(=O)n(C)c1` [Example 362, N-[5-butyl-4-(5-methoxy-1-methyl-6-oxopyridin-3-yl)pyrimidin-2-yl]ethanesulfonamide], for which the IC50 under setting [1] was below 500 nM. Still for that read-out and setting: the result for `CC(=O)Nc1cc(-c2cccc(NS(C)(=O)=O)c2)cn(C)c1=O` [Example 482, N-[5-[3-(methanesulfonamido)phenyl]-1-methyl-2-oxopyridin-3-yl]acetamide] reads above 5000 nM; that for `Cn1cc(-c2cc(S(C)(=O)=O)ccc2OCC2CC2)c2ncncc2c1=O` [Example 231, 8-[2-(cyclopropylmethoxy)-5-methylsulfonylphenyl]-6-methylpyrido[4,3-d]pyrimidin-5-one], 500 to 5000 nM.

Under “class symbols A/B/C”, `Cn1cc(-c2cccc(S(C)(=O)=O)c2)n2cncc2c1=O` [Example 131, 7-methyl-5-(3-methylsulfonylphenyl)imidazo[1,5-a]pyrazin-8-one] returned an IC50 above 5000 nM. With `CCOc1ccc(S(C)(=O)=O)cc1-c1cn(C)c(=O)c2c1CCCC2` [Example 216, 4-(2-ethoxy-5-methylsulfonylphenyl)-2-methyl-5,6,7,8-tetrahydroisoquinolin-1-one], the IC50 under setting [1] is below 500 nM. `CCS(=O)(=O)c1ccc(Oc2ccc(F)cc2F)c(-c2cc(C(F)(F)F)c(=O)n(C)c2)c1` [Example 392, 5-[2-(2,4-difluorophenoxy)-5-ethylsulfonylphenyl]-1-methyl-3-(trifluoromethyl)pyridin-2-one] registered an IC50 under setting [1] of 500 to 5000 nM. Still for that read-out and setting: the result for `CCCc1ccc(S(C)(=O)=O)cc1-c1cn(C)c(=O)c2ccccc12` [Example 314, 2-methyl-4-(5-methylsulfonyl-2-propylphenyl)isoquinolin-1-one] reads below 500 nM; that for `COc1ccc(COc2cc(-c3cn(C)c(=O)c4ccccc34)cc(S(C)(=O)=O)c2)cc1` [Example 343, 4-[3-[(4-methoxyphenyl)methoxy]-5-methylsulfonylphenyl]-2-methylisoquinolin-1-one], 500 to 5000 nM. Where the note is “class symbols A/B/C”, `Cc1cc(=O)n(C)cc1-c1cccc(NS(C)(=O)=O)c1` [Example 95, N-[3-(1,4-dimethyl-6-oxopyridin-3-yl)phenyl]methanesulfonamide] came in with an IC50 of 500 to 5000 nM. In turn, `COc1ccc2c(=O)n(C)cc(-c3cc(S(=O)(=O)C(C)C)ccc3OCC3CC3)c2c1` [Example 393, 4-[2-(cyclopropylmethoxy)-5-propan-2-ylsulfonylphenyl]-6-methoxy-2-methylisoquinolin-1-one] had an IC50 under setting [1] below 500 nM. Compound `Cn1cc(-c2cc(OCc3ccccc3)cc(S(C)(=O)=O)c2)c2ccccc2c1=O` [Example 344, 2-methyl-4-(3-methylsulfonyl-5-phenylmethoxyphenyl)isoquinolin-1-one] showed an IC50 under setting [1] below 500 nM.

The compound `Cc1cc(-c2cc(S(C)(=O)=O)ccc2O[C@H]2CC[C@@H](N)CC2)cn(C)c1=O` [Example 403, 5-[2-(cis-4-aminocyclohexyl)oxy-5-methylsulfonylphenyl]-1,3-dimethylpyridin-2-one] displayed an IC50 under setting [1] below 500 nM. Compound `CCCCc1cnc(S(C)(=O)=O)nc1-c1cc(C(C)C)c(=O)n(C)c1` [Example 513, 5-(5-butyl-2-methylsulfonylpyrimidin-4-yl)-1-methyl-3-propan-2-ylpyridin-2-one] returned an IC50 under setting [1] below 500 nM. Under setting [1], `Cc1cc(-c2cc(OCc3ccccn3)cc(S(C)(=O)=O)c2)cn(C)c1=O` [Example 330, 1,3-dimethyl-5-[3-methylsulfonyl-5-(pyridin-2-ylmethoxy)phenyl]pyridin-2-one] showed an IC50 below 500 nM.

Regarding `CCS(=O)(=O)Cc1ccc(OCC(F)(F)F)c(-c2cc(C)c(=O)n(CCO)c2)c1` [Example 407, 5-[5-(ethylsulfonylmethyl)-2-(2,2,2-trifluoroethoxy)phenyl]-1-(2-hydroxyethyl)-3-methylpyridin-2-one], the IC50 under setting [1] fell in the range of 500 to 5000 nM. `CCCc1cnc(NS(=O)(=O)CC)nc1-c1ccc(=O)n(C)c1` [Example 357, N-[4-(1-methyl-6-oxopyridin-3-yl)-5-propylpyrimidin-2-yl]ethanesulfonamide] yielded an IC50 under setting [1] below 500 nM. For the compound `Cn1cc(-c2cc(NS(C)(=O)=O)ccc2Oc2ccc(F)cc2F)c2c(c1=O)CCC2` [Example 506, N-[4-(2,4-difluorophenoxy)-3-(2-methyl-1-oxo-6,7-dihydro-5H-cyclopenta[c]pyridin-4-yl)phenyl]methanesulfonamide], the IC50 under setting [1] was below 500 nM. Same read-out and setting: with `CCCCc1ccc(S(C)(=O)=O)cc1-c1ccc(=O)n(C)c1` [Example 317, 5-(2-butyl-5-methylsulfonylphenyl)-1-methylpyridin-2-one] the figure was below 500 nM; with `CCS(=O)(=O)Nc1ncc(Oc2ccc(F)cc2F)c(-c2cc(C(C)C)c(=O)n(C)c2)n1` [Example 514, N-[5-(2,4-difluorophenoxy)-4-(1-methyl-6-oxo-5-propan-2-ylpyridin-3-yl)pyrimidin-2-yl]ethanesulfonamide], below 500 nM. Compound `CCS(=O)(=O)c1ccc(Oc2ccc(F)cc2F)c(-c2cn(C)c(=O)c3cncnc23)c1` [Example 234, 8-[2-(2,4-difluorophenoxy)-5-ethylsulfonylphenyl]-6-methylpyrido[4,3-d]pyrimidin-5-one] gave an IC50 under setting [1] of 500 to 5000 nM.

As for `Cn1cc(-c2cc(N)ccc2F)c2ccccc2c1=O` [Example 23, 4-(5-amino-2-fluorophenyl)-2-methylisoquinolin-1-one hydrochloride], where the note is “class symbols A/B/C”, the IC50 lay within 500 to 5000 nM. The compound `CCCCc1cnc(NS(C)(=O)=O)nc1-c1cc(C)c(=O)n(C)c1` [Example 363, N-[5-butyl-4-(1,5-dimethyl-6-oxopyridin-3-yl)pyrimidin-2-yl]methanesulfonamide] registered an IC50 under setting [1] below 500 nM. Still for that read-out and setting: the result for `CC(C)c1cc(-c2nc(S(C)(=O)=O)ncc2Oc2ccc(F)cc2F)cn(C)c1=O` [Example 273, 5-[5-(2,4-difluorophenoxy)-2-methylsulfonylpyrimidin-4-yl]-1-methyl-3-propan-2-ylpyridin-2-one] reads 500 to 5000 nM; that for `CCCc1cnc(NS(=O)(=O)CC)nc1-c1cn(C)c(=O)c2ccccc12` [Example 306, N-[4-(2-methyl-1-oxoisoquinolin-4-yl)-5-propylpyrimidin-2-yl] ethanesulfonamide], below 500 nM; that for `Cn1cc(-c2cc(S(C)(=O)=O)ccc2CCC2CC2)ccc1=O` [Example 315, 5-[2-(2-cyclopropylethyl)-5-methylsulfonylphenyl]-1-methylpyridin-2-one], below 500 nM. Under setting [1], `CCS(=O)(=O)c1ccc(OCC2CC2)c(-c2cc(NC)c(=O)n(C)c2)c1` [Example 409, 5-[2-(cyclopropylmethoxy)-5-ethylsulfonylphenyl]-1-methyl-3-(methylamino)pyridin-2-one] returned an IC50 below 500 nM. In turn, `Cn1cc(-c2cc(N)c(F)cc2F)c2ccccc2c1=O` [Example 24, 4-(5-amino-2,4-difluorophenyl)-2-methylisoquinolin-1-one hydrochloride] returned an IC50 (class symbols A/B/C) of 500 to 5000 nM.

`CC(C)S(=O)(=O)c1ccc(OCC2CC2)c(-c2cn(C)c(=O)c3ccccc23)c1` [Example 364, 4-[2-(cyclopropylmethoxy)-5-propan-2-ylsulfonylphenyl]-2-methylisoquinolin-1-one]: under setting [1], the IC50 was below 500 nM. On the same count and under the same terms, the result for `CC#CCOc1cc(-c2cc(C)c(=O)n(C)c2)cc(S(C)(=O)=O)c1` [Example 340, 5-(3-but-2-ynoxy-5-methylsulfonylphenyl)-1,3-dimethylpyridin-2-one] reads below 500 nM.

These data come from US10023592B2, “Bromodomain inhibitors” (Celgene Quanticel Research, Inc., priority 2013, dated 2018).
